Here are results for four substances from article PMC11055068, “Humoral Immune Response to SARS-CoV-2 Spike Protein Receptor-Binding Motif Linear Epitopes” (Vaccines, 2024).

The subject of series [1] is Purified antibodies specific to the RBM (anti-RBM antibodies from vaccinated serum). It is filed as binding, human.
Series [2] relates to IgG in serum of vaccinated individuals. Kind of series: In-house peptide ELISA, IgG. It is filed as binding, human. The note with it: serum 1:25; for IgG seroreactivity (positive samples): reactivity index > 1.1. Here is the method: A panel of 31 serum samples were obtained from individuals who received a single dose of the Oxford/AstraZeneca vaccine, and 15 serum samples were collected from individuals who received four doses. Serum from healthy donors, collected before the pandemic, was provided by HEMORIO, a centralized network of blood donor facilities in Rio de Janeiro, Brazil. Serum samples were supplied without identifying information to ensure patient privacy.
An in-house ELISA was conducted using Immunolon 4 HB plates (Immunochemistry Technologies, Bloomington, MN, USA). The coating process involved overnight incubation at 4 °C, wherein each well received 500 ng of peptides in a coating buffer (50 mM carbonate–bicarbonate buffer, pH 9.6). After washing with PBS-T (phosphate-buffered saline plus 0.05% Tween 20), the plates were incubated for 1 h at 37 °C with 1% BSA (200 µL) in PBS-T to block free binding sites. Following the dilution of patient serum in PBS-T with 1% BSA (1:25), 100 µL of the diluted serum was applied to immunosorbent plates, which were then incubated at 37 °C for 1 h. Following a series of PBS-T washes, plates were treated with 100 µL of mouse anti-human IgG3 (1:1000) followed by association with antimouse peroxidase (1:15.000) or goat anti-human immunoglobulin classes IgG (1:10.000), IgM (1:10.000), and IgA (1:5000) or subclasses IgG1 (1:1000) and IgG2 (1:1000) associated with the HRP molecule, respectively (Sigma-Aldrich, St Louis, MO, USA). Between each step, the plates were incubated at 37 °C for 1 h. Following the addition of 3,3′,5,5′-tetramethylbenzidine (1-Step™ Ultra TMB-ELISA, Science Biotech Ltd., Lages, SC, Brazil) for 15 min, 0.5 M sulfuric acid was utilized to terminate the reaction. The plate was read 30 min after the Stop Solution was added. The values of empty wells that contained only peptides were deducted from the optical density of the sample.
Prism software (GraphPad version 6, San Diego, CA, USA) was utilized to analyze the data. Statistical differences were identified using the Kruskal–Wallis test and Dunn’s multiple comparisons tests. Differences were considered significant when the p-value was less than 0.05. The reactivity index (RI) was calculated by dividing the absorbance of a given protein by the threshold established by a receiver operation curve (ROC) analysis. A result greater than 1.10 was considered positive, while a result less than 0.90 was considered negative; these are represented by dot lines. Samples with a relative index (RI) value of 1.0 ± 10% were classified as gray-zone samples and deemed inconclusive.

Series [3] can be described thus: Protein thermal shift assay. It is filed as physicochemical. As for the experimental part: Protein thermal shift assays were performed using a QuantStudio 3 PCR System (Applied Biosystems, Foster City, CA, USA). The experiments used a 0.2 mL MicroAmp® optical eight-strip manufactured by Applied Biosystems. Every step was executed on ice. In each measurement, duplicates or quadruplicates of the samples were analyzed. Each measurement included a negative control free of protein and a positive control obtained with Lysozyme (10 µg) and the peptide S8WT (5 µg). A carbonate–bicarbonate buffer (50 mM, pH 9.6) and a protein thermal shift dye (Applied Biosystems, Foster City, CA, USA) were used in a 4× dye concentration. The plate was sealed with MicroAmp™ Optical Adhesive Film (Applied Biosystems, Foster City, CA, USA) and incubated on ice for 15 min after all components were pipetted into the wells. An Applied Biosystems QuantStudio™ 3 Real-Time PCR System was used, utilizing a gradient rate of 0.05 °C/s and a melt curve filter setting of x2-m2 from 25 °C to 99 °C with continuous data collection. Analyses of the melting curves were conducted with the TSAR application in R version 4.2.1.

Another series deals with antibodies in sera. The note with it: ref A novel precision-serology assay for SARS-CoV-2 infection based on linear B-cell epitopes of Spike protein; cited from earlier work.
Setting [4] is: first dose Oxford/AstraZeneca, n = 30, 500 ng peptide per well.
[5] abbreviates: heterologous booster doses, n = 7.

As usually defined, the Kd is the free concentration of one partner at which half of the binding sites on the other are occupied at equilibrium, for simple one-to-one binding. Consider GSTPCNGVEGFNCYF [S2WT], for which, in series [1], the “binding affinity of RBM antibodies (in words)” value is “stronger”. The Kd in series [1] (read-out: Kd (dissociation constant)) amounted to 35 nM. The “IgG positive samples (reactivity index > 1.1)” value in series [2] (setting [4]) is reported as 4/30; in series [2] (setting [5]), 1/7. Besides, the “IgG seroreactivity (positive samples)” value in series [2] (first dose Oxford/AstraZeneca, n = 30) was found to be 13.3%; in series [2] (setting [5]) it was 14.3%.
What is called Tm is the temperature at the midpoint of the melting transition. On to Lysozyme, for which the midpoint of thermal melting (Tm) stood at 72.7 °C in series [3] (Lysozyme 10 µg control, carbonate–bicarbonate buffer 50 mM, pH 9.6, 25 to 99 °C, 0.05 °C/s, protein thermal shift dye); 71.7 °C in series [3] (replicate 1 (Lysozyme_1), 10 µg, carbonate–bicarbonate buffer pH 9.6); 73.7 °C in series [3] (replicate 2 (Lysozyme_2), 10 µg, carbonate–bicarbonate buffer pH 9.6).
NGVEGFNCYFP: in the series with antibodies in sera, the “serological reactivity vs other S1 and S2 regions” value is “less serologically reactive than other S1 and S2 regions”.
With YFPLQSYGFQPTNGV [S3WT], the “IgG positive samples (reactivity index > 1.1)” value in series [2] (setting [4]) is reported as “only two positive samples”; in series [2] (setting [5]) it was “one for heterologous booster doses”.
